Target: T1, Aβ42 (Homo sapiens, UniProt P05067)
T1 construct: purchased
Assay: ThT kinetic assay of Aβ42 fibrillation (specificity assay)
Type: biochemical
Description: Kinetic assays were conducted on a FlexStation 3 Multi-Mode Microplate reader from Molecular Devices (Sunnyvale, Calif.). Experiments were conducted in triplicate in a 96-well plate with a final volume of 200 μL per well. Every measurement was an average of 50 readings. The aggregation of IAPP was initiated by its addition from a stock solution (1 mM in DMSO) to phosphate buffer. The stoichiometry ratio for ThT to IAPP was 0.5:1. Peptide aggregation was monitored by ThT fluorescence (λex=445 nm and λem=485 nm). The blank sample contained all the components of the peptide samples except peptide. The sample data were processed by subtracting the blank and renormalizing the fluorescence intensity by setting the maximum value to 1.
Kinetic assays in the presence of the compounds of the invention were conducted under the same conditions. Small molecules were added from a stock solution (1 mM or 10 mM in DMSO) to keep the final concentration of DMSO less than 1.0% (v/v). Small molecules were added to the wells with ThT and buffer and mixed gently with a pipette before adding IAPP. To keep the conditions identical, an equal amount of DMSO was added to the wells with IAPP only reactions. For the aggregation kinetics of Aβ42, the peptide was dissolved in 1N NaOH (0.5-1 mM) and vortexed for 2 min. to ensure the complete solubility. The aggregation of 3 μM Aβ42 was initiated by addition of peptide from a stock solution (in 1 N NaOH, 0.5-1 mM) to phosphate buffer.
Kinetic profiles were processed using Origin (version 9.1). Kinetic curves were fit using the built-in sigmoidal fit. Each run was fit independently to extract the t50 (time required to reach 50% of the maximum fluorescence intensity). Error bars represent standard deviations from the mean of at least three independent experiments.
To test the specificity of ADH-101 towards IAPP, the binding interaction of ADH-101 with Aβ peptide was investigated. […]

T1 sequence (P05067 672-713 limits assumed): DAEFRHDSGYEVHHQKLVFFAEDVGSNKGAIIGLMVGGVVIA

CCOC(=O)c1cc(NC(=O)c2cc(NC(=O)c3cc([N+](=O)[O-])cn3CC(C)C)cn2CC(C)C)cn1CCC(=O)O [ADH-101]
effect on Aβ42 fibrillation (in words): weak agonist
relative t50 for Aβ42 amyloid fiber formation (3 μM Aβ42, equimolar ratio): 0.8 fold
t50 for the amyloid kinetics of Aβ42 in the presence of compound (3 μM Aβ42, equimolar ratio, Aβ42 alone 4.22±0.51 h): 3.41 ± 0.32 h

Reference: patent US11124479B2, “Oligopyrroles as antagonists of islet amyloid polypeptide oligomerization” (New York University, priority 2017, dated 2021)
